Like-named read-outs stand apart in the source and are kept apart here.
Tested on: HIV-1 (IIIB) in MT-4 cells
Assay: MT-4 HIV assay
Format: cell-based
Conditions: Human immunodeficiency virus 1, MT4, 120 h
Method: Compounds were tested in a high-throughput 384-well assay format for their ability to inhibit the replication of HIV-1 (IIIB) in MT-4 cells. Compounds were serially diluted (1:3) in DMSO on 384-well polypropylene plates and further diluted 200-fold into complete RPMI media (10% FBS, 1% P/S) using the Biotek Micro Flow and Agilent ECHO acoustic dispenser. Each plate contained up to 8 test compounds, with negative (No Drug Control) and 5 uM AZT positive controls. MT-4 cells were pre-infected with 10 uL of either RPMI (mock-infected) or a fresh 1:250 dilution of an HIV-1 (IIIB) concentrated virus stock. Infected and uninfected MT-4 cells were further diluted in complete RPMI media and added to each plate using a Micro Flow dispenser. After 5 days incubation in a humidified and temperature controlled incubator (37° C.), Cell Titer Glo (Promega) was added to the assay plates to quantify the amount of luciferase.

[1] = HIV-1 (IIIB), MT-4 cells, 5 days, Cell Titer Glo, read-out: EC50

For `CCC(=O)N[C@H](C(=O)N[C@@H](Cc1ccc(-c2cnn(C(F)F)c2)cc1)[C@@H](O)CN(Cc1c(F)cc(-c2cnn(C(F)F)c2)cc1F)NC(=O)[C@@H](NC(=O)CC)C(C)(C)C(F)(F)F)C(C)(C)C(F)(F)F` [Example 215, (S)—N-((2S,3S)-4-(1-(4-(1-(difluoromethyl)-1H-pyrazol-4-yl)-2,6-difluorobenzyl)-2-((S)-4,4,4-trifluoro-3,3-dimethyl-2-propionamidobutanoyl)hydrazinyl)-1-(4-(1-(difluoromethyl)-1H-pyrazol-4-yl)phenyl)-3-hydroxybutan-2-yl)-4,4,4-trifluoro-3,3-dimethyl-2-propionamidobutanamide], the EC50 [1] was 18.2 nM.

In the case of `COC(=O)N[C@H](C(=O)N[C@@H](Cc1ccc(C#Cc2cnc(N3CC4CC(C3)N4C3COC3)nc2)cc1)[C@@H](O)CN(Cc1c(F)cc(-c2ccn(C(F)F)n2)cc1F)NC(=O)[C@@H](NC(=O)OC)C(C)(C)C(F)(F)F)C(C)(C)C(F)(F)F` [Example 42, Methyl ((5S,8S,9S,14S)-11-(4-(1-(difluoromethyl)-1H-pyrazol-3-yl)-2,6-difluorobenzyl)-16,16,16-trifluoro-9-hydroxy-15,15-dimethyl-8-(4-((2-(6-(oxetan-3-yl)-3,6-diazabicyclo[3.1.1]heptan-3-yl)pyrimidin-5-yl)ethynyl)benzyl)-3,6,13-trioxo-5-(1,1,1-trifluoro-2-methylpropan-2-yl)-2-oxa-4,7,11,12-tetraazahexadecan-14-yl)carbamate], the EC50 [1] is reported as 3.18 nM.

Work on `COC(=O)N[C@H](C(=O)N[C@@H](Cc1ccc(C#Cc2ccc(N3CC[N+]([O-])(C4COC4)CC3)nc2)cc1)[C@@H](O)CN(Cc1c(F)cc(-c2ccn(C(F)F)n2)cc1F)NC(=O)[C@@H](NC(=O)OC)C(C)(C)C(F)(F)F)C(C)(C)C(F)(F)F` [Example 54, 4-(5-((4-((2S,3S)-4-(1-(4-(1-(difluoromethyl)-1H-pyrazol-3-yl)-2,6-difluorobenzyl)-2-((S)-4,4,4-trifluoro-2-((methoxycarbonyl)amino)-3,3-dimethylbutanoyl)hydrazinyl)-3-hydroxy-2-((S)-4,4,4-trifluoro-2-((methoxycarbonyl)amino)-3,3-dimethylbutanamido)butyl)phenyl)ethynyl)pyridin-2-yl)-1-(oxetan-3-yl)piperazine 1-oxide] yielded an EC50 of 8.47 nM.

In the case of `COC(=O)N[C@H](C(=O)N[C@@H](Cc1ccc(C#Cc2ccc(N3CCN(C(C)=O)CC3)nc2)cc1)[C@@H](O)CN(Cc1c(F)cc(-c2ccn(C)n2)cc1F)NC(=O)[C@@H](NC(=O)OC)C(C)(C)C)C(C)(C)C` [Example 228], the EC50 is reported as 1.66 nM.

`COC(=O)N[C@H](C(=O)N[C@@H](Cc1ccc(C#Cc2ccc(N3CC4CCC(C3)N4C3COC3)nc2)cc1)[C@@H](O)CN(Cc1c(F)cc(-c2ccc(C(F)F)nc2)cc1F)NC(=O)[C@@H](NC(=O)OC)C(C)(C)C(F)(F)F)C(C)(C)C(F)(F)F` [Example 100, Methyl ((5S,8S,9S,14S)-11-(4-(6-(difluoromethyl)pyridin-3-yl)-2,6-difluorobenzyl)-16,16,16-trifluoro-9-hydroxy-15,15-dimethyl-8-(4-((6-(8-(oxetan-3-yl)-3,8-diazabicyclo[3.2.1]octan-3-yl)pyridin-3-yl)ethynyl)benzyl)-3,6,13-trioxo-5-(1,1,1-trifluoro-2-methylpropan-2-yl)-2-oxa-4,7,11,12-tetraazahexadecan-14-yl)carbamate] was tested, and the EC50 [1] was 7.96 nM.

In the case of `CC(C)([C@H](NC(=O)OC1COC1)C(=O)N[C@@H](Cc1ccc(C#Cc2ccc(N3CC4CCC(C3)N4C3COC3)nc2)cc1)[C@@H](O)CN(Cc1c(F)cc(-c2ccn(C(F)F)n2)cc1F)NC(=O)[C@@H](NC(=O)OC1COC1)C(C)(C)C(F)(F)F)C(F)(F)F` [Example 169, oxetan-3-yl ((2S)-1-(2-(4-(1-(difluoromethyl)-1H-pyrazol-3-yl)-2,6-difluorobenzyl)-2-((2S,3S)-2-hydroxy-4-(4-((6-(8-(oxetan-3-yl)-3,8-diazabicyclo[3.2.1]octan-3-yl)pyridin-3-yl)ethynyl)phenyl)-3-((S)-4,4,4-trifluoro-33-dimethyl-2-(((oxetan-3-yloxy)carbonyl)amino)butanamido)butyl)hydrazinyl)-4,4,4-trifluoro-3,3-dimethyl-1-oxobutan-2-yl)carbamate], the EC50 [1] is reported as 6.76 nM.

In the case of `COC(=O)N[C@H](C(=O)N[C@@H](Cc1ccc(C#Cc2ccc(N3C[C@H]4C[C@@H]3CN4C3COC3)nc2)cc1)[C@@H](O)CN(Cc1c(F)cc(-c2ccc(F)cn2)cc1F)NC(=O)[C@@H](NC(=O)OC)C(C)(C)C(F)(F)F)C(C)(C)C(F)(F)F` [Example 135, Methyl ((5S,10S,11S,14S)-8-(2,6-difluoro-4-(5-fluoropyridin-2-yl)benzyl)-16,16,16-trifluoro-10-hydroxy-15,15-dimethyl-11-(4-((6-((1R,4R)-5-(oxetan-3-yl)-2,5 diazabicyclo[2.2.1]heptan-2-yl)pyridin-3-yl)ethynyl)benzyl)-3,6,13-trioxo-5-(1,1,1-trifluoro-2-methylpropan-2-yl)-2-oxa-4,7,8,12-tetraazahexadecan-14-yl)carbamate], the EC50 [1] is reported as 3.64 nM.

With `COC(=O)N[C@H](C(=O)N[C@@H](Cc1ccc(C#Cc2ccc(N3CC4(C)CN(C5COC5)CC(C)(C3)C4=O)nc2)cc1)[C@@H](O)CN(Cc1c(F)cc(-c2cnn(C(F)F)c2)cc1F)NC(=O)[C@@H](NC(=O)OC)C(C)(C)C(F)(F)F)C(C)(C)C(F)(F)F` [Example 62, Methyl ((5S,8S,9S,14S)-11-(4-(1-(difluoromethyl)-1H-pyrazol-4-yl)-2,6-difluorobenzyl)-8-(4-((6-(1,5-dimethyl-7-(oxetan-3-yl)-9-oxo-3,7-diazabicyclo[3.3.1]nonan-3-yl)pyridin-3-yl)ethynyl)benzyl)-16,16,16-trifluoro-9-hydroxy-15,15-dimethyl-3,6,13-trioxo-5-(1,1,1-trifluoro-2-methylpropan-2-yl)-2-oxa-4,7,11,12-tetraazahexadecan-14-yl)carbamate] the EC50 was 8.83 nM.

`COC(=O)N[C@H](C(=O)N[C@@H](Cc1ccc(-c2ccc(N3CC4CCC(C3)N4C3COC3)nc2)cc1)[C@@H](O)CN(Cc1c(F)cc(-c2nnc(C3CC3)o2)cc1F)NC(=O)[C@@H](NC(=O)OC)C(C)(C)C(F)(F)F)C(C)(C)C(F)(F)F` [Example 205, Methyl ((5S,8S,9S,14S)-11-(4-(5-cyclopropyl-1,3,4-oxadiazol-2-yl)-2,6-difluorobenzyl)-16,16,16-trifluoro-9-hydroxy-15,15-dimethyl-8-(4-(6-(8-(oxetan-3-yl)-3,8-diazabicyclo[3.2.1]octan-3-yl)pyridin-3-yl)benzyl)-3,6,13-trioxo-5-(1,1,1-trifluoro-2-methylpropan-2-yl)-2-oxa-4,7,11,12-tetraazahexadecan-14-yl)carbamate] gave an EC50 [1] of 5.25 nM.

Compound `COC(=O)N[C@H](C(=O)N[C@@H](Cc1ccc(C#Cc2ccc(N3CC4CCC(C3)N4c3ncccn3)nc2)cc1)[C@@H](O)CN(Cc1c(F)cc(-c2ccn(C)n2)cc1F)NC(=O)[C@@H](NC(=O)OC)C(C)(C)C)C(C)(C)C` [Example 226] has an EC50 [1] of 14.9 nM.

For `COC(=O)N[C@H](C(=O)N[C@@H](Cc1ccc(-c2ccc(N3CC4CC(C3)N4C3COC3)nc2)cc1)[C@@H](O)CN(Cc1c(F)cc(-c2ccn(C(F)F)n2)cc1F)NC(=O)[C@@H](NC(=O)OC)C(C)(C)C(F)(F)F)C(C)(C)C(F)(F)F` [Example 202, Methyl ((5S,8S,9S,14S)-11-(4-(1-(difluoromethyl)-1H-pyrazol-3-yl)-2,6-difluorobenzyl)-16,16,16-trifluoro-9-hydroxy-15,15-dimethyl-8-(4-(6-(6-(oxetan-3-yl)-3,6-diazabicyclo[3.1.1]heptan-3-yl)pyridin-3-yl)benzyl)-3,6,13-trioxo-5-(1,1,1-trifluoro-2-methylpropan-2-yl)-2-oxa-4,7,11,12-tetraazahexadecan-14-yl)carbamate], the EC50 [1] was 9.67 nM.

`COC(=O)N[C@H](C(=O)N[C@@H](Cc1ccc(C#Cc2ccc(N3CCN(C4COC4)CC3)nc2)cc1)[C@@H](O)CN(Cc1ccc(-c2cnn(C(F)F)c2)cc1)NC(=O)[C@@H](NC(=O)OC)C(C)(C)C(F)(F)F)C(C)(C)C(F)(F)F` [Example 113, Methyl ((5S,8S,9S,14S)-11-(4-(1-(difluoromethyl)-1H-pyrazol-4-yl)benzyl)-16,16,16-trifluoro-9-hydroxy-15,15-dimethyl-8-(4-((6-(4-(oxetan-3-yl)piperazin-1-yl)pyridin-3-yl)ethynyl)benzyl)-3,6,13-trioxo-5-(1,1,1-trifluoro-2-methylpropan-2-yl)-2-oxa-4,7,11,12-tetraazahexadecan-14-yl)carbamate] was tested, and the EC50 [1] was 6.01 nM.

With `COC(=O)N[C@H](C(=O)NN(Cc1c(F)cc(-c2ccn(C(F)F)n2)cc1F)C[C@H](O)[C@H](Cc1ccc(C#Cc2ccc(N3CCN4CCOC[C@H]4C3)nc2)cc1)NC(=O)[C@@H](NC(=O)OC)C(C)(C)C(F)(F)F)C(C)(C)C` [Example 13, Methyl ((5S,8S,9S,14S)-11-(4-(1-(difluoromethyl)-1H-pyrazol-3-yl)-2,6-difluorobenzyl)-8-(4-((6-((R)-hexahydropyrazino[2,1-c][1,4]oxazin-8(1H)-yl)pyridin-3-yl)ethynyl)benzyl)-9-hydroxy-15,15-dimethyl-3,6,13-trioxo-5-(1,1,1-trifluoro-2-methylpropan-2-yl)-2-oxa-4,7,11,12-tetraazahexadecan-14-yl)carbamate] the EC50 [1] was 6.3 nM.

Source: patent publication US10294234B2, “HIV inhibitor compounds” (priority 2017, dated 2019)
